Patent US20090012018A1, “Inhibition of pancretic cancer cell growth” (priority 2004, published 2009)
Entries after “also recorded” stand apart in the source; their conditions may differ.

Columns and labels:
Assay type in all cases: cell-based, human
[1] = test system: pancreatic adenocarcinoma cell lines; assay: Growth, BrdU incorporation and apoptosis of pancreatic cancer cell lines (results stated for the lines together); conditions: 7/13 lines
Experimental: The small chemical inhibitors were used at the following final concentrations: up to 250 μM for sulindac (Sigma), up to 300 μM for sulindac sulfone (Calbiochem or ICN), NS-398 up to 25 μM (Calbiochem), sodium salicylate up to 100 μM (Calbiochem). […] To test for drug sensitivity, the cells were plated in control medium or in medium containing the drug of interest for 2 to 5 days. The culture media was changed every 48 hrs. The images showing cell morphology were taken with a Nikon inverted microscope.
(§1) Cells were pulsed with 10 μM BrdU for two hours and then harvested and fixed. BrdU incorporation was detected with a fluorescein isothiocyanate conjugated anti-BrdU antibody (BD Biosciences) and total DNA was stained with 7-AAD (BD Biosciences). FACS analysis was performed according to the BD Biosciences BrdU flow kit manual. Cells in S-phase were defined as the BrdU-positive cell population with a DNA content between 2N and 4N. According to the manual, apoptotic cells were defined as a subpopulation of G0/G1 cells with DNA content lower than the diploid amount (<2N).
The cell lines were plated the day prior to transfection at a density of 8×10^4 cells/well in a 24-well plate. The luciferase reporter constructs used included: Top-Flash and Fop-Flash containing multimerized Tcf-Lef binding sites or nonfunctional sites, respectively; TK-Luc (Promega); and GliBS containing 8×Gli binding sites upstream of the TK minimal promoter (Sasaki et al., Development, 124:1313-1322, 1997). In different experiments, the reporter constructs were co-transfected with an expression vector containing a dominant-negative form of Lef1 or the endogenous Wnt inhibitor Icat. The dominant negative Lef1 (gift from S. Pleasure) was generated by cloning the 63 amino acid N-terminal deleted form of Lef1 into the pEF5 plasmid. This construct also contains an IRES-EGFP cassette. The cDNA coding for the Icat protein was cloned into pIRES2-EGFP (BD Biosciences Clontech). Transfections were performed using the Effectene transfection reagent […] according to the user's manual. A Renilla luciferase plasmid (Promega) was included to control for transfection efficiency. Transfected cells were cultured in medium containing serum. […] Cells were harvested 24 hrs after transfection, and luciferase activity was assayed using the Dual Luciferase kit (Promega), according to the user's manual.
Small interfering RNA (siRNA) oligonucleotides against β-catenin containing two thymidine residues (dTdT) at the 3′ end of the sequence (5′-[…] […] T-3′ set forth as SEQ ID NO:57) were used for treatment of cancer cells as described (Verma et al., Clin Cancer Res, 9:1291-1300, 2003). The GLI1 siRNA (sense 5′-[…] […]-3′ set forth as SEQ ID NO:58) was also used as described (Sanchez et al., Proc Natl Acad Sci USA 101:12561-12566, 2004). Small interfering RNA against GLI2 was ordered against the target sequence 5-[…] […] A-3′, set forth as SEQ ID NO:59). […] Cells were transfected with oligofectamine (Invitrogen) according to the user's manual, with a final siRNA concentration of 100 or 300 nM. Transfected cells were incubated for 48 hrs before harvesting.

[2] = test system: Hedgehog signaling (GliBS-luc reporter); assay: GliBS-luciferase reporter assay; conditions: CFPAC-1, BxPC3, L3.6sl, Panc4.21; cyclopamine 10 μM, sulindac 250 μM; FIG. 4B
Experimental: The cell lines were plated the day prior to transfection at a density of 8×10^4 cells/well in a 24-well plate. The luciferase reporter constructs used included: Top-Flash and Fop-Flash containing multimerized Tcf-Lef binding sites or nonfunctional sites, respectively; TK-Luc (Promega); and GliBS containing 8×Gli binding sites upstream of the TK minimal promoter (Sasaki et al., Development, 124:1313-1322, 1997). In different experiments, the reporter constructs were co-transfected with an expression vector containing a dominant-negative form of Lef1 or the endogenous Wnt inhibitor Icat. The dominant negative Lef1 (gift from S. Pleasure) was generated by cloning the 63 amino acid N-terminal deleted form of Lef1 into the pEF5 plasmid. This construct also contains an IRES-EGFP cassette. The cDNA coding for the Icat protein was cloned into pIRES2-EGFP (BD Biosciences Clontech). Transfections were performed using the Effectene transfection reagent […] according to the user's manual. A Renilla luciferase plasmid (Promega) was included to control for transfection efficiency. Transfected cells were cultured in medium containing serum. […] Cells were harvested 24 hrs after transfection, and luciferase activity was assayed using the Dual Luciferase kit (Promega), according to the user's manual. […]

Tcf4 = assay: Immunofluorescence of Tcf expression in pancreatic cancer cells; conditions: cyclopamine for 24 hrs (FIG. 4C) or sulindac-treated
Panc3.27 = assay: Sensitivity of pancreatic adenocarcinoma cells to drug treatment (cell proliferation); conditions: reduction in cell proliferation
Experimental: The culture media was changed every 48 hrs.
as §1

In the case of `CC1=C(CC(=O)O)c2cc(F)ccc2/C1=C\c1ccc([S+](C)[O-])cc1` (stereo not shown) [sulindac], the “lines tested with measurable reduction in cell proliferation” value [1] is reported as 54%, the “activity of the GliBS-luc Hedgehog reporter” value [2] is reported as “unaffected; also recorded: had no affect” and the Tcf4 expression (Tcf4) is reported as “reduced”. The “Sulindac Sensitivity” value (Panc3.27) was “Positive”.
